Legend:
AMARE = assay: greenhouse experiment, post-emergence treatment; format: in vivo, Amaranthus retroflexus; details: post-emergence method, application rate 2000 g/ha, scale from 0 to 100
Source text: (§1) The culture containers used were plastic flowerpots containing loamy sand with approximately 3.0% of humus as the substrate. The seeds of the test plants were sown separately for each species.
(§2) For the post-emergence treatment, the test plants were first grown to a height of 3 to 15 cm, depending on the plant habit, and only then treated with the active ingredients which had been suspended or emulsified in water. For this purpose, the test plants were either sown directly and grown in the same containers, or they were first grown separately as seedlings and transplanted into the test containers a few days prior to treatment.
(§3) Depending on the species, the plants were kept at 10-25° C. or 20-35° C., respectively.
(§4) The test period extended over 2 to 4 weeks. During this time, the plants were tended, and their response to the individual treatments was evaluated.
(§5) Evaluation was carried out using a scale from 0 to 100. 100 means no emergence of the plants, or complete destruction of at least the aerial moieties, and 0 means no damage, or normal course of growth. A good herbicidal activity is given at values of at least 70 and a very good herbicidal activity is given at values of at least 85.
(§6) The plants used in the greenhouse experiments were of the following species: […]

ECHCG [1] = assay: greenhouse experiment, post-emergence treatment; format: in vivo, Echinocloa crus-galli; details: post-emergence method, application rate 2000 g/ha, scale from 0 to 100
Procedure: The seeds of the test plants were sown separately for each species. […] For this purpose, the test plants were either sown directly and grown in the same containers, or they were first grown separately as seedlings and transplanted into the test containers a few days prior to treatment. Depending on the species, the plants were kept at 10-25° C. or 20-35° C., respectively. The test period extended over 2 to 4 weeks. During this time, the plants were tended, and their response to the individual treatments was evaluated. Evaluation was carried out using a scale from 0 to 100. 100 means no emergence of the plants, or complete destruction of at least the aerial moieties, and 0 means no damage, or normal course of growth. A good herbicidal activity is given at values of at least 70 and a very good herbicidal activity is given at values of at least 85. The plants used in the greenhouse experiments were of the following species: [table]

SETVI = assay: greenhouse experiment, post-emergence treatment; format: in vivo, Setaria viridis; details: post-emergence method, application rate 2000 g/ha, scale from 0 to 100
Source text: as §1, §2, §3, §4, §5, §6

ABUTH = assay: greenhouse experiment, post-emergence treatment; format: in vivo, Abutilon theophrasti; details: post-emergence method, application rate 2000 g/ha, scale from 0 to 100
Source text: as §1, §2, §3, §4, §5, §6

APESV = assay: greenhouse experiment, pre-emergence treatment; format: in vivo, Apera spica-venti; details: pre-emergence method, application rate 2000 g/ha, scale from 0 to 100
Source text: (§7) The seeds of the test plants were sown separately for each species. For the pre-emergence treatment, the active ingredients, which had been suspended or emulsified in water, were applied directly after sowing by means of finely distributing nozzles. The containers were irrigated gently to promote germination and growth and subsequently covered with transparent plastic hoods until the plants had rooted. This cover caused uniform germination of the test plants, unless this had been impaired by the active ingredients. Depending on the species, the plants were kept at 10-25° C. or 20-35° C., respectively. The test period extended over 2 to 4 weeks. During this time, the plants were tended, and their response to the individual treatments was evaluated. Evaluation was carried out using a scale from 0 to 100. 100 means no emergence of the plants, or complete destruction of at least the aerial moieties, and 0 means no damage, or normal course of growth. A good herbicidal activity is given at values of at least 70 and a very good herbicidal activity is given at values of at least 85. The plants used in the greenhouse experiments were of the following species: [table]

AVEFA = assay: greenhouse experiment, post-emergence treatment; format: in vivo, Avena fatua; details: post-emergence method, application rate 2000 g/ha, scale from 0 to 100
Source text: as §1, §2, §3, §4, §5, §6

ALOMY = assay: greenhouse experiment, post-emergence treatment; format: in vivo, Alopecurus myosuroides; details: post-emergence method, application rate 2000 g/ha, scale from 0 to 100
Source text: as §1, §2, §3, §4, §5, §6

ECHCG [2] = assay: greenhouse experiment, pre-emergence treatment; format: in vivo, Echinocloa crus-galli; details: pre-emergence method, application rate 2000 g/ha, scale from 0 to 100
Source text: as §7

Row | Compound | herbicidal activity against AMARE (AMARE) | herbicidal activity against ECHCG (ECHCG [1]) | herbicidal activity against SETVI (SETVI) | herbicidal activity against ABUTH (ABUTH) | herbicidal activity against APESV (APESV) | herbicidal activity against AVEFA (AVEFA) | herbicidal activity against ALOMY (ALOMY) | herbicidal activity against ECHCG (ECHCG [2])
1 | COC(=O)c1nc(C2CC2)ncc1-c1ncccc1F [Example 19] | very good (a very good herbicidal activity is given at values of at least 85) | very good (a very good herbicidal activity is given at values of at least 85) | very good (a very good herbicidal activity is given at values of at least 85) |  |  |  |  | 
2 | COC(=O)c1nc(C2CC2)ncc1-c1ncc(F)cc1F [Example 31] |  |  | very good (a very good herbicidal activity is given at values of at least 85) | good (A good herbicidal activity is given at values of at least 70) | very good (a very good herbicidal activity is given at values of at least 85) |  |  | 
3 | COC(=O)c1nc(C2CC2)ncc1-c1ccncc1F [Example 33] | very good (a very good herbicidal activity is given at values of at least 85) |  | very good (a very good herbicidal activity is given at values of at least 85) |  | good (A good herbicidal activity is given at values of at least 70) | very good (a very good herbicidal activity is given at values of at least 85) |  | 
4 | COC(=O)c1nc(C2CC2)ncc1-c1nc(C(F)(F)F)ccc1F [Example 61] |  |  | very good (a very good herbicidal activity is given at values of at least 85) |  | good (A good herbicidal activity is given at values of at least 70) | very good (a very good herbicidal activity is given at values of at least 85) | very good (a very good herbicidal activity is given at values of at least 85) | very good (a very good herbicidal activity is given at values of at least 85)
5 | COC(=O)c1nc(C2CC2)ncc1-c1cc(C(F)(F)F)ncc1Cl [Example 63] |  |  | very good (a very good herbicidal activity is given at values of at least 85) | very good (a very good herbicidal activity is given at values of at least 85) | very good (a very good herbicidal activity is given at values of at least 85) |  | very good (a very good herbicidal activity is given at values of at least 85) | very good (a very good herbicidal activity is given at values of at least 85)

From US11180470B2, “Herbicidal pyrimidine compounds” (BASF SE, priority 2016, dated 2021)
